Results on 25 molecules are retold here after ChEMBL document CHEMBL1138114, “Convergent, parallel synthesis of a series of beta-substituted 1,2,4-oxadiazole butanoic acids as potent and selective alpha(v)beta3 receptor antagonists” (Bioorg Med Chem Lett, 2006).

The target in data set [1] is Integrin alpha-IIb/beta-3 (Homo sapiens, UniProt P05106+P08514). Description: Inhibition of Integrin alpha-2b-beta-3 receptor by SPRA assay. The class given is protein-complex assay.
Data set [2] concerns the target T1, Integrin alpha-V/beta-3 (Homo sapiens, UniProt P05106+P06756). Description: Inhibition of Integrin alphav-beta3 receptor by SPRA assay. The class given is protein-complex assay.
A further data set addresses Integrin alpha-V/beta-5 (Homo sapiens, UniProt P06756+P18084). Description: Inhibition of Integrin alphav-beta5 receptor expressed in HEK293 cell line. The class given is cell-based.
Data set [3] deals with T1, Integrin alpha-V/beta-3. Description: Inhibition of Integrin alphav-beta3 receptor expressed in HEK293 cells. The class given is cell-based.
Another data set has as its target Integrin alpha-V/beta-6 (Homo sapiens, UniProt P06756+P18564). Description: Inhibition of Integrin alphav-beta6 receptor expressed in HT29 cell line. The class given is cell-based, HT-29.
Another data set concerns the target Integrin alpha-V/beta-1 (Homo sapiens, UniProt P05556+P06756). Description: Inhibition of Integrin alphav-beta1 receptor expressed in HEK293 cell line. The class given is cell-based.
Data set [4] in a line: Clearance in rat at 5 mg/kg, iv. The class given is ADME, organism-based. Further details: dose 5 mg/kg, route intravenous. Conditions: in vivo.
Data set [5] in a line: Half life in rat at 5 mg/kg, iv. The class given is ADME, organism-based. Set-up: dose 5 mg/kg, route intravenous. The settings on record: in vivo.
Data set [6] can be described thus: Bioavailability in rat at 5 mg/kg, iv. The class given is ADME, organism-based. The settings on record: in vivo.
A further data set relates to Rattus norvegicus. Description: AUC/dose(mg/kg) in orally dosed rat at 10 mg/kg. The class given is ADME, organism-based, Plasma. Further details: dose 10 mg/kg, route oral. The settings on record: in vivo, po.
Data set [7] is described as follows: Volume of distribution in rat at 5 mg/kg, iv. The class given is ADME, organism-based. Set-up: dose 5 mg/kg, route intravenous. The settings on record: in vivo, read-out: Vdss.

Sequence of Integrin alpha-V/beta-1 (P05556 21-798 limits assumed): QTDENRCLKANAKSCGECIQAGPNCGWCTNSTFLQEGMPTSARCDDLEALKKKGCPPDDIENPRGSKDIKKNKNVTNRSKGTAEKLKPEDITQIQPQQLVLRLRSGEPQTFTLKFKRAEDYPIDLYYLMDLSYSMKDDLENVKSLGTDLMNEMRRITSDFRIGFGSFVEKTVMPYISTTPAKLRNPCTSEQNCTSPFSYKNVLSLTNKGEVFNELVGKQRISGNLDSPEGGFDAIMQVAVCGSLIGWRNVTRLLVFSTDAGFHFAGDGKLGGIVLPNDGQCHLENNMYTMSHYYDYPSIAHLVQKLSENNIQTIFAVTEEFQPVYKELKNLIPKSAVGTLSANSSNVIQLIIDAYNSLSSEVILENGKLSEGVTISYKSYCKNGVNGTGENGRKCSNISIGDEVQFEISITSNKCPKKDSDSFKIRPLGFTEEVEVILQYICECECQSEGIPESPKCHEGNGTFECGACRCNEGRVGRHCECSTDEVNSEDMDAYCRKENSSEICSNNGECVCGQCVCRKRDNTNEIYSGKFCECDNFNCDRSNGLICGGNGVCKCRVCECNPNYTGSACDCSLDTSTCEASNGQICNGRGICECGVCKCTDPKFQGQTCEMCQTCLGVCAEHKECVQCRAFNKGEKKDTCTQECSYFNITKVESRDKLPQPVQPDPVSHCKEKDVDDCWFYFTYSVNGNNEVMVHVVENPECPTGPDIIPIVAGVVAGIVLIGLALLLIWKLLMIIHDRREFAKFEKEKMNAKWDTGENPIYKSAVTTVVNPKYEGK
Sequence of Integrin alpha-V/beta-1 (P06756 31-889 limits assumed): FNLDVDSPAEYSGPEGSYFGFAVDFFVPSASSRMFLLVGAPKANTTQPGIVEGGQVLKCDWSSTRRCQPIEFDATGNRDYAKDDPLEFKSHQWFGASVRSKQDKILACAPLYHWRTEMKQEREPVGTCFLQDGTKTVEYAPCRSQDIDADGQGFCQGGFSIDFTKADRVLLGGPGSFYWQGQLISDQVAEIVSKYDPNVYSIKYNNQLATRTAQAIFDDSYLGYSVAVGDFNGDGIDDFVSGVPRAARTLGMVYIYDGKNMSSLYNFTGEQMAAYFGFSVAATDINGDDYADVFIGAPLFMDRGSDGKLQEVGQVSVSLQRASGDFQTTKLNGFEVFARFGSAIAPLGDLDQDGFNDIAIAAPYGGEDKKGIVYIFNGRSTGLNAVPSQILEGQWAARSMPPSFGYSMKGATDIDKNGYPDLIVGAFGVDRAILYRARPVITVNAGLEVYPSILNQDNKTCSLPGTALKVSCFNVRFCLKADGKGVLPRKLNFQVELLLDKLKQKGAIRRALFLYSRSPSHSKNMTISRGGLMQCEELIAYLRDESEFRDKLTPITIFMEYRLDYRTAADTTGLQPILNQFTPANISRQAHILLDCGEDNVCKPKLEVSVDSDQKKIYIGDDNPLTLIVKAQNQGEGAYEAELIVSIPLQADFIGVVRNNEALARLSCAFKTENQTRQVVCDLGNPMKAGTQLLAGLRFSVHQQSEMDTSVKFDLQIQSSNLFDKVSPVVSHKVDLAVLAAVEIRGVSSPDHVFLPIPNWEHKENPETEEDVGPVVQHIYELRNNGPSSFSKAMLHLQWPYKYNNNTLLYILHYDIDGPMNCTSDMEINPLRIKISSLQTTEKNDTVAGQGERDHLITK
Sequence of Integrin alpha-V/beta-1 (P06756 891-1048 limits assumed): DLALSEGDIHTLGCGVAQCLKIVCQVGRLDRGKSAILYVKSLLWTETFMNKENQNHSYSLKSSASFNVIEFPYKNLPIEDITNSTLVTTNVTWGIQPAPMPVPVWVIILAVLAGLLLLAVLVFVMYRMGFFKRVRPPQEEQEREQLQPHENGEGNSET
Sequence of Integrin alpha-V/beta-5 (P06756 31-889 limits assumed): as the sequence (P06756 31-889 limits assumed) above
Sequence of Integrin alpha-V/beta-5 (P06756 891-1048 limits assumed): as the sequence (P06756 891-1048 limits assumed) above
Sequence of Integrin alpha-V/beta-5 (P18084 24-799 limits assumed): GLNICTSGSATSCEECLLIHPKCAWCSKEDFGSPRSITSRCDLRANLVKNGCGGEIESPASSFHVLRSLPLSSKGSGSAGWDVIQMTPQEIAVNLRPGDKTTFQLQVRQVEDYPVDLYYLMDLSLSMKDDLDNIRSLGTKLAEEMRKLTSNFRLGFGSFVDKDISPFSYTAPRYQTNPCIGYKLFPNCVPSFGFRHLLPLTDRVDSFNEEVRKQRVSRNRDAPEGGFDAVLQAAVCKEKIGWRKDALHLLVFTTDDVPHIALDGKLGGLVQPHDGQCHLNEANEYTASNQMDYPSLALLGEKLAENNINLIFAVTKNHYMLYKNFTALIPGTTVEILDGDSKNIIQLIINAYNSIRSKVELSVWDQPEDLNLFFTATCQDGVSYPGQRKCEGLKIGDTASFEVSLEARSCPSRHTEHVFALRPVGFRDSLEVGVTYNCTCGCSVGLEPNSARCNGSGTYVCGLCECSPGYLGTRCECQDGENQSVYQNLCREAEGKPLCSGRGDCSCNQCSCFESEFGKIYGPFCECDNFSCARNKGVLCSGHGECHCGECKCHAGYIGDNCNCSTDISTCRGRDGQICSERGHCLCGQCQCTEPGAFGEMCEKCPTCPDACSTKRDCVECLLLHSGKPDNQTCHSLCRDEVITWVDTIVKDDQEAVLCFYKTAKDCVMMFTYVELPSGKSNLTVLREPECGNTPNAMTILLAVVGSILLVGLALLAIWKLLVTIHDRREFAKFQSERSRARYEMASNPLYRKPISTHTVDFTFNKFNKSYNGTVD
Sequence of Integrin alpha-V/beta-6 (P06756 31-889 limits assumed): as the sequence (P06756 31-889 limits assumed) above
Sequence of Integrin alpha-V/beta-6 (P06756 891-1048 limits assumed): as the sequence (P06756 891-1048 limits assumed) above
Sequence of Integrin alpha-V/beta-6 (P18564 22-788 limits assumed): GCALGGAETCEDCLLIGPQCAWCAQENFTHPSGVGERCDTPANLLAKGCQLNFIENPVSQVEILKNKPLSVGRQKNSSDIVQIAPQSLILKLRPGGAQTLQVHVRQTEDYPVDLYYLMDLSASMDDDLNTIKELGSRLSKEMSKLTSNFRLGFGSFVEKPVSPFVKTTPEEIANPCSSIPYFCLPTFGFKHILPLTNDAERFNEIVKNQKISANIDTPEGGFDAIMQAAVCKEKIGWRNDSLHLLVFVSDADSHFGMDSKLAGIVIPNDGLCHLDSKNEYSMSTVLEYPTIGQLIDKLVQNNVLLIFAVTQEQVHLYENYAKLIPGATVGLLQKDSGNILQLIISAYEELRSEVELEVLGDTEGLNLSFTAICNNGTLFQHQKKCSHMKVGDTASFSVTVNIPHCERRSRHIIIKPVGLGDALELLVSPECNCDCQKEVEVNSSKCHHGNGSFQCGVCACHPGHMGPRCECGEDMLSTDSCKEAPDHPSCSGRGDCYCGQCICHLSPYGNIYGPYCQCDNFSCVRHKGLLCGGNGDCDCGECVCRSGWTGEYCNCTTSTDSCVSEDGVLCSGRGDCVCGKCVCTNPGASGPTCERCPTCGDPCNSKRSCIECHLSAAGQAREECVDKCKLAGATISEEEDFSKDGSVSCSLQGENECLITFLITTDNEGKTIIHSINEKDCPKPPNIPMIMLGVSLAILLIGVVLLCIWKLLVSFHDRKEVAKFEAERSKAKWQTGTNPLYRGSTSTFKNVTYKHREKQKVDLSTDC
T1 sequence (P05106 27-788 limits assumed): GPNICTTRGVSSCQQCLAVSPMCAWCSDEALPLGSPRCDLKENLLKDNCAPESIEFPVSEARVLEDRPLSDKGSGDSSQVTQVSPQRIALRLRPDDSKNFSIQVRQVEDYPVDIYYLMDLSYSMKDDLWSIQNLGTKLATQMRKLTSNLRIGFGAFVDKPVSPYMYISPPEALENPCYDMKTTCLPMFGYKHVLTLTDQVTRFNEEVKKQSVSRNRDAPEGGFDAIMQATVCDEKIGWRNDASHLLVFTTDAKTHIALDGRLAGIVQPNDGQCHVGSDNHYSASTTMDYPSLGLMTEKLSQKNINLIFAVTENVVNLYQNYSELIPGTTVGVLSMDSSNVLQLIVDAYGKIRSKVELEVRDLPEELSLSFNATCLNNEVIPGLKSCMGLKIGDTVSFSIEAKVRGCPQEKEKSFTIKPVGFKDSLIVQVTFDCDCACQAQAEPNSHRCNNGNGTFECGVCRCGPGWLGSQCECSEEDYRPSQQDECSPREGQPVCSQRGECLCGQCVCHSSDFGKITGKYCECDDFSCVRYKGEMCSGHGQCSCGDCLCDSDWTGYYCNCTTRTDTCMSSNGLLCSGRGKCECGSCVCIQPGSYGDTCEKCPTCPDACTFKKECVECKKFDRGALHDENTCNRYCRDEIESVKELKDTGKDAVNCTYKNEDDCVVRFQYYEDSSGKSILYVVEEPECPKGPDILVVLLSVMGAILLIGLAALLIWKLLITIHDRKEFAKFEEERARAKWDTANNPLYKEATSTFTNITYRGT
T1 sequence (P06756 31-889 limits assumed): as the sequence (P06756 31-889 limits assumed) above
T1 sequence (P06756 891-1048 limits assumed): as the sequence (P06756 891-1048 limits assumed) above

For the molecule `O=C(O)C[C@H](Cc1nc(CCCCNc2ccccn2)no1)c1ccc2c(c1)OCO2`, the IC50 was 126 nM in data set [1] and 2.4 nM against Integrin alpha-V/beta-3 [2].

For the molecule `O=C(O)C[C@H](Cc1nc(CCCCNc2cc(N3CCOCC3)ccn2)no1)c1ccc2c(c1)OCO2`, the IC50 came to 4.6 nM against Integrin alpha-V/beta-5; 17 nM in data set [1]; 0.74 nM against Integrin alpha-V/beta-3 [3]; 0.78 nM at Integrin alpha-V/beta-3 [2]; 4360 nM on Integrin alpha-V/beta-6.

In the case of `O=C(O)CC(Cc1nc(CCCc2ccc3c(n2)NCCC3)no1)c1ccc2ncoc2c1` (stereo not given), the IC50 in data set [1] is 65.4 nM; against Integrin alpha-V/beta-3 [3] it was 0.32 nM; at Integrin alpha-V/beta-3 [2], 0.5 nM; against Integrin alpha-V/beta-1, 2.7 nM; at Integrin alpha-V/beta-6, 486 nM.

As to `Cc1ccnc(NCCCCc2noc(C[C@@H](CC(=O)O)c3ccc4c(c3)OCO4)n2)c1`, the IC50 is 91 nM in [1] and 2 nM against Integrin alpha-V/beta-3 [2].

Molecule `O=C(O)CC(Cc1nc(CCCc2ccc3c(n2)NCCC3)no1)c1ccc2c(c1)OCC2` (stereo not given) returned a clearance in data set [4] of 17.3 mL/min/kg. Moreover, in [5], the half-life was 1.2 h. Further, the bioavailability in [6] was determined as 63%. In addition, the AUC/dose with Rattus norvegicus was 970 ng·h/mL/(mg/kg). Besides, the IC50 in data set [1] worked out at 224 nM; against Integrin alpha-V/beta-3 [3], 0.63 nM; on Integrin alpha-V/beta-3 [2], 2.1 nM; on Integrin alpha-V/beta-1, 9.7 nM; against Integrin alpha-V/beta-6, 3020 nM. In addition, the Vd in [7] came to 0.803 L/kg.

Turning to `CC(C)(CC(=O)O)Cc1nc(CCCc2ccc3c(n2)NCCC3)no1`, the values for the IC50 (in [1]; against Integrin alpha-V/beta-3 [2]) were 12600 nM and 20 nM, respectively.

With `CNc1cccc(CCCc2noc(CC(CC(=O)O)c3ccc4c(c3)OCO4)n2)n1` (stereo not given), the IC50 on Integrin alpha-V/beta-5 was 16 nM; in data set [1] it was 278 nM; against Integrin alpha-V/beta-3 [3] it was 3.2 nM; on Integrin alpha-V/beta-3 [2] it was 2.1 nM; against Integrin alpha-V/beta-6, above 10000 nM.

For `O=C(O)CC(Cc1nc(CCCc2ccc3c(n2)NCCC3)no1)c1cnc(C2CC2)s1` (stereo not given), in data set [4], the clearance amounted to 5.56 mL/min/kg. The same molecule gave a half-life in [5] of 1.8 h. Further, the bioavailability in data set [6] was 96%. In the data set on Rattus norvegicus, the AUC/dose was 3050 ng·h/mL/(mg/kg). The IC50 on Integrin alpha-V/beta-5 turned out to be 1.2 nM; in data set [1] it was 168 nM; against Integrin alpha-V/beta-3 [3] it was 0.6 nM; at Integrin alpha-V/beta-3 [2] it was 1.43 nM; against Integrin alpha-V/beta-6, 1590 nM. Besides, the Vd in data set [7] is 0.497 L/kg.

For `CC(CC(=O)O)(Cc1nc(CCCc2ccc3c(n2)NCCC3)no1)c1cccnc1` (stereo not given), the figures for the IC50 (in data set [1]; on Integrin alpha-V/beta-3 [2]) were 950 nM and 3.6 nM, respectively.

Regarding `O=C(O)CC(Cc1nc(CCCc2ccc3c(n2)NCCC3)no1)c1cccc(F)c1` (stereo not given), the IC50 on Integrin alpha-V/beta-5 turned out to be 3.7 nM; in data set [1], 419 nM; against Integrin alpha-V/beta-3 [3], 1.1 nM; on Integrin alpha-V/beta-3 [2], 1.75 nM; on Integrin alpha-V/beta-6, 3730 nM.

`O=C(O)CC1(Cc2nc(CCCc3ccc4c(n3)NCCC4)no2)CCCC1`: the IC50 in [1] was found to be 8130 nM; on Integrin alpha-V/beta-3 [2], 9.5 nM.

As for `C#CC(CC(=O)O)Cc1nc(CCCc2ccc3c(n2)NCCC3)no1` (stereo not given), the IC50 against Integrin alpha-V/beta-5 was found to be 4 nM; in data set [1] it was 1220 nM; against Integrin alpha-V/beta-3 [3] it was 4 nM; against Integrin alpha-V/beta-3 [2] it was 8.7 nM; against Integrin alpha-V/beta-6 it was 6240 nM.

Turning to `CC(CC(=O)O)Cc1nc(CCCc2ccc3c(n2)NCCC3)no1` (stereo not given), the IC50 in data set [1] turned out to be 9300 nM; against Integrin alpha-V/beta-3 [2] it was 12 nM.

Turning to `O=C(O)CC(Cc1nc(CCCc2ccc3c(n2)NCCC3)no1)c1ccccc1` (stereo not given), the IC50 in data set [1] was 747 nM; at Integrin alpha-V/beta-3 [2] it was 1.8 nM.

`O=C(O)C[C@H](Cc1nc(CCCc2ccc3c(n2)NCCC3)no1)c1ccc2c(c1)OCO2` registered a clearance in data set [4] of 10.9 mL/min/kg. Moreover, in [5], the half-life was 1.4 h. Besides, the bioavailability in data set [6] came out at 95%. In addition, the AUC/dose with Rattus norvegicus is 1500 ng·h/mL/(mg/kg). Further, the IC50 at Integrin alpha-V/beta-5 worked out at 1.7 nM; in [1], 27 nM; against Integrin alpha-V/beta-3 [3], 0.65 nM; at Integrin alpha-V/beta-3 [2], 0.4 nM; on Integrin alpha-V/beta-1, 2.6 nM; at Integrin alpha-V/beta-6, 2660 nM. In addition, in data set [7], the Vd is 0.733 L/kg.

In the case of `O=C(O)CC(Cc1nc(CCCc2ccc3c(n2)NCCC3)no1)c1cnn(-c2ccccc2)c1` (stereo not given), the IC50 is 216 nM in data set [1] and 1.2 nM against Integrin alpha-V/beta-3 [2].

As to `O=C(O)CCCc1nc(CCCc2ccc3c(n2)NCCC3)no1`, the IC50 in data set [1] was determined as 32500 nM; at Integrin alpha-V/beta-3 [2], 160 nM.

As to `O=C(O)CC(Cc1nc(CCCc2ccc3c(n2)NCCC3)no1)c1cnc2ccccc2c1` (stereo not given), in data set [4], the clearance is 19.1 mL/min/kg. In data set [5], this molecule had a half-life of 1.1 h. This molecule also displayed a bioavailability in data set [6] of 66%. The AUC/dose with Rattus norvegicus was 600 ng·h/mL/(mg/kg). Also, the IC50 in data set [1] amounted to 18 nM; at Integrin alpha-V/beta-3 [2], 0.65 nM. The Vd in [7] amounted to 0.622 L/kg.

In data set [4], `COc1ccc(C(CC(=O)O)Cc2nc(CCCc3ccc4c(n3)NCCC4)no2)cn1` (stereo not given) returned a clearance of 12 mL/min/kg. For the same molecule, in data set [5], the half-life was 1.1 h. This molecule also came in with a bioavailability in [6] of 100%. In addition, the AUC/dose in the data set on Rattus norvegicus was 1910 ng·h/mL/(mg/kg). Further, the IC50 in data set [1] was 187 nM; on Integrin alpha-V/beta-3 [2], 1 nM. Also, the Vd in data set [7] turned out to be 0.694 L/kg.

Turning to `CN1CCNc2nc(CCCc3noc(CC(CC(=O)O)c4ccc5c(c4)OCO5)n3)ccc21` (stereo not given), the clearance in [4] amounted to 18.2 mL/min/kg. In [5], the half-life was 0.93 h. In data set [6], this molecule gave a bioavailability of 77%. Besides, the AUC/dose in the data set with Rattus norvegicus is 710 ng·h/mL/(mg/kg). Moreover, inhibition against Integrin alpha-V/beta-3 [2] was half-maximal at 1.7 nM (IC50). In addition, the Vd in [7] was 0.447 L/kg.

In the case of `CC(CC(=O)O)(Cc1nc(CCCc2ccc3c(n2)NCCC3)no1)c1ccccc1` (stereo not given), the IC50 was 35800 nM in [1] and 116 nM against Integrin alpha-V/beta-3 [2].

Regarding `O=C(O)CC(Cc1nc(CCCc2ccc3c(n2)NCCC3)no1)c1cccnc1` (stereo not given), the IC50 at Integrin alpha-V/beta-5 stood at 3.3 nM; in data set [1] it was 474 nM; at Integrin alpha-V/beta-3 [3], 0.77 nM; against Integrin alpha-V/beta-3 [2], 1.6 nM; against Integrin alpha-V/beta-6 it was 2420 nM.

For the molecule `Cc1ncc(C(CC(=O)O)Cc2nc(CCCc3ccc4c(n3)NCCC4)no2)s1` (stereo not given), the IC50 in data set [1] came to 423 nM; at Integrin alpha-V/beta-3 [2], 1.28 nM.

In the case of `COc1ccnc(NCCCCc2noc(C[C@@H](CC(=O)O)c3ccc4c(c3)OCO4)n2)c1`, the IC50 in data set [1] was found to be 64 nM; at Integrin alpha-V/beta-3 [2], 1.1 nM.

Regarding `O=C(O)C[C@H](Cc1nc(CCCCNc2cc(N3CCSCC3)ccn2)no1)c1ccc2c(c1)OCO2`, the clearance in data set [4] was 78 mL/min/kg. This molecule gave a half-life in data set [5] of 0.4 h. Besides, the bioavailability in [6] was determined as 29%. For the same molecule, in the data set with Rattus norvegicus, the AUC/dose is 60 ng·h/mL/(mg/kg). Besides, the IC50 at Integrin alpha-V/beta-5 worked out at 2.9 nM; in data set [1] it was 22 nM; on Integrin alpha-V/beta-3 [3], 0.62 nM; on Integrin alpha-V/beta-3 [2], 0.26 nM; on Integrin alpha-V/beta-6, 2670 nM. Besides, in data set [7], the Vd worked out at 0.897 L/kg.

Usually IC50 stands for the point on the concentration scale where inhibition reaches its midpoint. Broadly, the clearance is a measure of how efficiently the substance is removed, as volume per time. The low end stands for inefficient removal, the high end for efficient removal. One may read the half-life as the time needed for the level to fall by half in the phase considered. Lower therefore signals rapid decline. The bioavailability is the share of a dose that reaches the circulation, judged against a reference dose that is usually intravenous.
